Experimental data from US20200291100A1, “TREATMENT OF AGE-RELATED AND MITOCHONDRIAL DISEASES BY INHIBITION OF HIF-1 ALPHA FUNCTION” (President and Fellows of Harvard College, priority 2012, published 2020).

Assays:
[1] = tested on: TFAM promoter; experiment: TFAM promoter luciferase assay in primary WT myoblasts treated with DMOG; format: cell-based, mouse; conditions: DMOG versus DMSO
Protocol: TFAM promoter, VHL promoter, HRE and c-Myc activity were determined using a luciferase-based system. Luciferase activity was measured using the Dual-Luciferase Reporter Assay System (Promega) with Renilla as the reference.
TFAM promoter activity was evaluated using a TFAM promotes-luc plasmid. A fragment of the mouse Tfam promoter (1.4 kb upstream of the coding sequence) was cloned into a pGL4.15 vector (Promega). Luciferase activity was measured using the Dual-Luciferase Reporter Assay System (Promega) with Renilla as the reference 48 h after transfection.
c-Myc was previously shown to directly bind to the TFAM promoter in cancer cells (Li et al., 2005) and consistent with this report, it was observed that knockdown of c-Myc in primary myoblasts leads to decreased TFAM promoter activity (FIG. 16E). Mutation of the c-Myc consensus sequence, CACGTG, present in the TFAM promoter decreased the promoter activity by about half of the full length promoter (FIG. 16F). […] Next it was tested whether c-Myc binding site was required for SIRT1's ability to induce TFAM promoter activity. Overexpression of SIRT1 in primary myoblasts lead to an increase in the full length TFAM promoter activity, however disruption of c-Myc binding site was sufficient to completely prevent the ability of SIRT1 to induce TFAM promoter activity (FIG. 16H). […]

[2] = tested on: Egln1 KO mice; experiment: NMN treatment of Egln1 KO mice; format: in vivo, mouse; conditions: skeletal muscle of Egln1 KO mice compared to WT controls; NMN 500 mg/kg IP, 7 days
Protocol: Whole body adult-inducible Egln1 knockout mice (Minamishima et al, 2007) were treated with IP injection of tamoxifen for 3 days after which they were allowed to rest. The mice were given interperitoneal (IP) injections of 500 mg NMN/kg body weight per day or the equivalent volume of PBS for 7 consecutive days at 5:00 pm and 7:00 am on day 8 and sacrificed 4 hr after last injection. All animal studies followed the guidelines of and were approved by the Harvard Institutional Animal Care and Use Committee.
ATP content was measured with a commercial kit according to the manufacturer's instructions (Roche).
RNA from skeletal muscle tissue and C2C12 cells were extracted with RNeasy mini kit (Qiagen) according to the instructions and quantified using the NanoDrop 1000 spectrophotometer (Thermo Scientific). cDNA was synthesized with the iSCRIP cDNA synthesis kit (BioRad) using 600 ng of RNA. Quantitative RT-PCR reactions were performed using 1 μM of primers and LightCycler® 480 SYBR Green Master (Roche) on an LightCycler® 480 detection system (Roche). Calculations were performed by a comparative method (2-ΔCT) using 18S as an internal control. […]

[3] = tested on: primary myoblasts; experiment: NMN in primary myoblasts with NMNAT1 knockdown, qPCR of mitochondrial-encoded genes; format: cell-based, mouse; conditions: cells with knockdown of NMNAT1 versus nontargeting shRNA
Description: FIGS. 17A-17L reveal that increasing NAD+ levels rescues age-related mitochondrial and muscle dysfunction through a SIRT1-HIF-1α pathway. FIG. 17A depicts NAD+ levels in gastrocnemius of 3- and 24-month-old mice treated with either the vehicle (PBS) or NMN (n=5, *p<0.05 versus 3-month-old PBS animals, #p<0.05 versus 24-month-old PBS animals). FIG. 17B depicts ATP content in gastrocnemius of 6- and 22-month-old mice treated with either the vehicle (PBS) or NMN (n=6). FIG. 17C depicts expression of mitochondrial-encoded genes (ND1, Cytb, COX1 and ATP6) analyzed by qPCR in gastrocnemius of 6- and 22-month-old mice treated with either the vehicle (PBS) or NMN. Relative expression values were normalized to 6-months old PBS mice (n=6). […] FIG. 17F depicts expression of mitochondrial-encoded genes (ND1, Cytb, COX1 and ATP6) analyzed by qPCR in gastrocnemius of WT and Egln1 KO mice treated with either the vehicle (PBS) or NMN. […] FIG. 17H depicts expression of mitochondrial-enoded genes (ND1, Cytb, COX1 and ATP6) analyzed by qPCR in primary myoblasts WT cells infected with NMNAT1 or nontargeting shRNA treated with either the vehicle (PBS) or NMN. […] FIG. 17I depicts expression of mitochondrial-encoded genes (ND1, Cytb, COX1 and ATP6) analyzed by qPCR in gastrocnemius of WT and SIRT1 KO mice treated with either the vehicle (PBS) or NMN. […] Values are expressed as mean±SEM. […]

COC(=O)CNC(=O)C(=O)OC [DMOG, dimethyloxaloylglycine]
full length TFAM promoter activity [1]: reduces
TFAM promoter activity, c-Myc consensus sequence mutation ([1]; in the absence of the c-Myc binding site): does not have an additive effect

NC(=O)c1ccc[n+]([C@@H]2O[C@H](COP(=O)([O-])O)[C@@H](O)[C@H]2O)c1 [NMN, nicotinamide mononucleotide]
ATP levels [2]: did not restore
mitochondrial-encoded genes [2]: did not restore
ability of NMN to induce the expression of mitochondrial-encoded genes [3]: completely abolishes
